Reference: patent US20100063126A1, “Carbazole-Derived Pharmaceutical Compositions” (JadoLabs GmbH, priority 2004, published 2010)

Legend:
[1] = test system: influenza virus; assay: Virus budding assay (influenza assay); type: cell-based
[2] = test system: RBL-2H3 cells; assay: Degranulation assay (β-hexosaminidase release); type: cell-based, Rat
[3] = test system: PR8 virus; assay: microbe, parasite or virus in culture; type: cell-based; conditions: unidentified influenza virus, PR8, MDCK; for inhibition at 3.125 µM: read-out: inhibition of virus replication / infection
[4] = test system: HIV-1 strain NL4-3; assay: microbe, parasite or virus in culture; type: cell-based; conditions: Human immunodeficiency virus 1, NL43, HeLa TZM cells, compared to solvent, read-out: inhibition of HIV infection
[5] = Disrafter-Liposome Raftophile Assay (D-LRA); conditions: 100 μM
[6] = test system: Wild type SV40 viruses; type: cell-based, Simian Virus 40; conditions: 15CM, HeLa cells, compared to solvent control
[7] = test system: vesicular stomatitis virus (VSV); type: cell-based; conditions: HeLa cells
[8] = Rattus norvegicus, RBL-2H3, read-out: inhibition of release of β-hexosaminidase

SMILES	inhibition in influenza virus budding assay [1]	inhibition at 3.125 µM [3] [%]	inhibition at 10 µM [4] [%]	other results
CCCCCCCC1(O)C(C)=C(OC)C(=O)c2c1[nH]c1ccccc21 (centres unmarked) [Compound 22c]	inhibitory	60.2	44	inhibition at 50 µM [2, 8]: 12%
CCCCCCCc1c(C)c(OC)c(OC)c2c1[nH]c1ccccc12 [Compound 22d]			21	
CCCCCCCCCCCCCCCCCCOc1cc2[nH]c3cc(OC)ccc3c2cc1C [Compound 25d]	inhibitory	18.4		
CCCCCCCc1c(C)c(OC)cc2c1[nH]c1ccccc12 [Compound 24d]	inhibitory			inhibition at 100 µM ([3]; read-out: inhibition of virus infection): 50.9%; disrafting activity (% disrafting) ([5]; perylene as marker): -98.5%
CC1=C(Cc2ccc3[nH]c4c(c3c2)C(=O)C(=O)C(C)=C4CC(C)O)CCC(C)(C)C1 (centres unmarked) [Compound 22a]	inhibitory	24.2	15	inhibition of SV40 infection [6]: 19%; inhibitory effect on viral infection in VSV counterscreen [7]: no inhibitory effect on viral infection at all
CC(C)=CCc1ccc2[nH]c3c(c2c1)C(=O)C(=O)C(C)=C3C[C@@H](C)O [Compound 21a]				inhibition at 100 µM [2, 8]: 46%; disrafting activity (% disrafting) ([5]; perylene as marker): 47.2%
Cc1c(C)c2c(c(C)c1O)CC[C@@](C)(CCC[C@H](C)CCC[C@H](C)CCCC(C)C)O2 [Alpha-(+)-tocopherol]				activity in mast cell degranulation assay [2]: moderately active
CCCCCCCc1c(C)c(O)cc2c1[nH]c1ccccc12 [Compound 23d]			20	inhibition at 100 µM [2, 8]: 15%; disrafting activity (% disrafting) ([5]; GS-96 as marker): -97.3%
CCCCCCCC1=C(C)C(=O)C(=O)c2c1[nH]c1ccccc21 [Compound 21b]	inhibitory			inhibition at 25 µM ([3]; read-out: inhibition of virus replication): 18.3%
